This is an account of results in article PMC6938345, “Inhibition of complement activation, myeloperoxidase, NET formation and oxidant activity by PIC1 peptide variants” (PLoS ONE, 2019).

The subject of this assay is purified human neutrophils. The assay is described as follows: NETosis assay, free DNA by PicoGreen. The following applies: Average of n = 3; peptide 2 mM. It counts as cell-based. As for the experimental part: NETosis assays with immune complexes were performed as previously described. Briefly, normal human serum was stimulated with ovalbumin-antiovalbumin immune complexes in GVBS^++ for 30 minutes at 37 °C. This mixture along with 0.05% H2O2 was then added to purified human neutrophils resuspended in RPMI with or without sarcosine variants (2 mM), allowing NETosis to occur. Quantitation of free DNA released from the neutrophils was performed using PicoGreen. Slides were stained with DAPI (Southern Biotech, Birmingham, AL) and the following antibodies, mouse anti-elastase (Invitrogen, Carlsbad, CA) was used with the secondary goat anti-mouse Alexa Fluor 568 (Novus Biologicals, Centennial, CO) and rabbit anti-histone H3 (Abcam, Cambridge MA) with goat anti-rabbit Alexa Fluor 488 (Novus Biologicals) to visualize formation of NETs which were imaged with fluorescence microscopy with an Olympus BX53 microscope.
In this assay purified human neutrophils are stimulated with normal human serum activated with ovalbumin-antiovalbumin immune complexes and hydrogen peroxide. Free DNA expressed from the neutrophils is then measured in a PicoGreen assay.
Fig 5 Sarcosine variant inhibition of NET formation. Fluorescence microscopy images of NET formation after neutrophil stimulation with immune complexes (IC) and hydrogen peroxide (H2O2) compared with neutrophil only control. Variant I8 inhibition of NET formation is shown in the third row. Histones are probed with anti-histone antibody (αhistone), neutrophil elastase is probed with anti-neutrophil elastase (αNE) and DNA is stained with DAPI. Representative images are shown. […] Purified human neutrophils were stimulated with 2% normal human sera pre-incubated with ovalbumin-antiovalbumin immune complexes, and 0.05% H2O2. Sarcosine peptides and PIC1 were added to the sera to a final concentration of 2 mM. Data are the means of n = 3 independent experiments + SEM.

In the case of `CC[C@H](C)[C@H](N)C(=O)N[C@@H](C)C(=O)N[C@@H](CC(C)C)C(=O)N[C@H](C(=O)N[C@@H](CC(C)C)C(=O)N[C@@H](CCC(=O)O)C(=O)N1CCC[C@H]1C(=O)N(C)CC(=O)N[C@@H](CS)C(=O)N[C@@H](CS)C(=O)N[C@@H](CCC(N)=O)C(=O)N[C@@H](CCC(=O)O)C(=O)N[C@@H](CCCNC(=N)N)C(=O)N[C@@H](C)C(=O)N[C@@H](C)C(=O)O)[C@@H](C)CC` [I8], the “PICO green - NETs, free DNA release” value is given as 43.
